Source: patent US7217833B2, “Carboxylic acid compounds for use as surfactants” (Glaxco Group Limited, priority 2002, dated 2007)

Key:
Assay type in all cases: physicochemical
[1] = Content uniformity by dose through use testing; conditions: Initial timepoint, 10% w/w surfactant
Experimental: (§1) Salmeterol xinafoate formulations in HFA 134a, of strength 25 μg per actuation, and 10% w/w (relative to drug) of the relevant surfactant compound of formula (I) were prepared in crimped glass bottles using salmeterol xinafoate (8.7 mg), HFA 134a (18 g) and the relevant compound (0.87 mg). The control was prepared without the addition of a surfactant.
The content uniformity of the formulation, the preparation of which is described above, was assessed by dose through use testing. Testing was performed on 10 cans/inhalers at “beginning of use” (BoU) and “end of use” (EoU). After each inhaler had been primed (4 shots fired to waste), actuations 1 and 2 (BoU) were collected. The next 116 actuations of each inhaler were then fired to waste using an automated method and actuations 119 and 120 (EoU) collected.
Assessment of content uniformity was performed at the initial timepoint (following sample preparation). Mean results from the two BoU actuations (1+2 for 10 inhalers) and the two EoU actuations (119+120 for same 10 inhalers) together with the percentage relative standard deviation (% RSD) for the 10 cans are shown in Table 3. […] The presence of the surfactant therefore improves the content uniformity of the inhaler. Furthermore the formulations containing the compound of Example 1, advantageously, show a reduction in the relative standard deviation at the BoU and EoU.

[2] = Particle size by image analysis (Galai CIS-100) of salmeterol xinafoate suspension in HFA 134a
Experimental: as §1
In this measurement, particle size is represented as the equivalent diameter of a circle of equal area to the object. The mean is the average of 4 determinations. The particle size measurement was obtained by transferring the suspensions to a pressurised cell, and video-imaging the sample under shear via a microscope objective.
The equivalent diameter is defined as the diameter of a circle of equal area to the object.
The mean equivalent diameter can be weighted by number, length or volume. e.g. For three particles with equivalent diameters of x, y and z: […]

[3] = Andersen Cascade Impaction of salmeterol xinafoate HFA 134a formulation; conditions: Initial timepoint, beginning of use, mean of 3 cans/inhalers, 10% w/w surfactant
Experimental: as §1
The formulation, the preparation of which is described above, was profiled using an Andersen Cascade Impactor. Ten actuations at “beginning of use” (BoU) were collected in the impactor from an inhaler after 4 priming actuations were fired to waste. The drug delivered was then quantified by HPLC analysis. Testing was performed at the initial timepoint (following sample preparation). The results, in Table 2 are shown as the mean analysis of 3 cans/inhalers.
The profile obtained was used to determine total dose emitted dose (ex-valve and ex-actuator) and the fine particle mass (FPM, defined as the sum of stages 3–5). The percentage fine particle mass expresses the FPM as a percentage of the total dose emitted (ex-valve). The FPM is used as a measure of the proportion of the drug likely to reach the therapeutic target in the lungs.

O=C(CCC(F)(F)C(F)(F)F)OCC(OC(=O)CCC(F)(F)C(F)(F)F)C(=O)O (centres unmarked) [Example 1, 2,3-Bis[(4,4,5,5,5-pentafluoronentanoyl)oxy]propanoic acid]
BoU dose ([1]; actuations 1+2, mean of 10 inhalers): 21.2 µg
EoU dose ([1]; actuations 119+120, mean of 10 inhalers): 25.1 µg
Mean Length weighted diameter ([2]; salmeterol xinafoate 25 μg per actuation in HFA 134a with 10% w/w (relative to drug) surfactant, mean of 4 determinations): 21.5 μm
suspension stabilising properties (flocculation of drug particles) ([2]; salmeterol xinafoate formulation in HFA 134a with 10% w/w surfactant): has suspension stabilising properties
Total Dose Emitted (Ex-Actuator) ([3]; 10 actuations): 21.1 µg
Total Dose Emitted (Ex-Valve) ([3]; 10 actuations): 23.9 µg
% FPM (FPM as percentage of total dose emitted ex-valve) [3]: 50.3%
FPM (fine particle mass, sum of stages 3–5) [3]: 12.0 µg
